Data reported in patent US20250230138A1, “COMPOUNDS HAVING A T-STRUCTURE FORMED BY AT LEAST FOUR CYCLES FOR USE IN THE TREATMENT OF CANCER AND OTHER INDICATIONS” (TheRas, Inc., priority 2022, published 2025).
pIC50: −log10 of the molar value. Like-named read-outs stand apart in the source and are kept apart here.

Columns and labels:
pAKT in BT474 cells = experiment: Cell-based pAKT HTRF assay in BT474 cells; conditions: BT474 cells, 4 hr incubation, read-out: pAKT inhibition IC50 in BT474 cells
Procedure, shortened: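 pAKT was measured by HTRF after a 4 hr compound exposure in BT474 cells (DMEM, 10% FBS, 0.25% DMSO), using 9 concentrations from 3 μM in 3-fold steps. Cell lysates were incubated with the Eu cryptate/d2 antibody pair at room temperature for 4 to 24 h. The plate was then read at 320 nm excitation and 615 nm emission.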

[1] = molecular target: Cys242 in human PIK3CA (157-299) (Homo sapiens (Human), UniProt P42336); experiment: Covalent modification assay using MALDI-TOF MS; assay type: biochemical; conditions: 4 h reaction time point
Cys242 in human PIK3CA (157-299), sequence (P42336 157-299): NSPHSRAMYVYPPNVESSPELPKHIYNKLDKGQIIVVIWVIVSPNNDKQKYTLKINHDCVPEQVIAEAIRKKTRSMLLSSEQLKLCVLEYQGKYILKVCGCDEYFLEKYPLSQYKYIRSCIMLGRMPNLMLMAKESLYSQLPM
Procedure, shortened: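 Covalent adduct formation was read by linear-mode MALDI-TOF with sinapinic acid matrix, reported as modified-protein peak height divided by total protein peak heights. Reactions held PIK3CA (157-299) at 1 or 3.33 μM in HEPES/NaCl/MgCl2 buffer, pH 7.3, sampled after 15 min to 4 h at room temperature.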

[2] = 1 μM protein target, 1:5 protein to compound ratio (compounds 853-1279)
[3] = 3.33 μM protein target, 1:7.5 protein to compound ratio (compounds 1-852)
[4] = Homo sapiens, BT-474, Compounds 10-999

SMILES	pIC50 (pAKT in BT474 cells; Compounds 10-999)	% of modification [1, 2]	% of modification [1, 3]	pIC50 (pAKT in BT474 cells; Compounds 1000-1279)	pIC50 (pAKT in BT474 cells; [4])
C=CC(=O)N1CCn2nc(-c3nc(-c4ccnc(N(C)C)c4)c4ccsc4c3-c3c(F)cc(F)cc3OCCOC)cc2[C@@H]1C [Compound 965]	6.00 to 7.00	A (percent of modification of PIK3CA protein ≥75%)			
C=C(F)C(=O)N1CCn2nc(-c3nc(-c4ccc5c(c4)CNC5=O)c4ccsc4c3-c3c(F)cc(F)cc3OC(C)C)nc2C1 [Compound 315]	> 7.00		A (percent of modification of PIK3CA protein ≥75%)		
C=CC(=O)N1CCn2nc(-c3nc(-c4cnc(C)nc4)c4ccsc4c3-c3c(F)cc(F)cc3OCCOC)cc2C1C (centres unmarked) [Compound 792]	> 7.00		A (percent of modification of PIK3CA protein ≥75%)		
C=CC(=O)N1CCn2nc(-c3nc(-c4cnc5c(c4)CN(C)CC54CC4)c4ccsc4c3-c3c(F)cc(F)cc3OCCOC)cc2[C@H]1C [Compound 1163]		A (percent of modification of PIK3CA protein ≥75%)		> 7.00	
C=CC(=O)N1Cc2cc(-c3nc(-c4ccc5nn(C)cc5c4)c4ccsc4c3-c3c(F)cc(F)cc3OC(C)C)nn2C[C@H]1C [Compound 525]	> 7.00		A (percent of modification of PIK3CA protein ≥75%)		
C=CC(=O)N1CCn2nc(-c3nc(-c4ccc5c(c4)C(=O)NCC5)c4ccsc4c3-c3c(F)cc(F)cc3OCCO)cc2[C@H]1C [Compound 955]	> 7.00	A (percent of modification of PIK3CA protein ≥75%)			
C=CC(=O)N1CCn2nc(-c3nc(-c4ccc5c(c4)C4(CC4)CN(C)C5)c4ccsc4c3-c3c(F)cc(F)cc3OCCOC)cc2C1C (centres unmarked) [Compound 1193]		A (percent of modification of PIK3CA protein ≥75%)		> 7.00	
C=CC(=O)N1CCc2nc(-c3nc(-c4ccc5c(c4)CCNC5)c4ccsc4c3-c3ccc(F)cc3OC)sc2C1 [Compound 87, 1-[2-[7-(4-fluoro-2-methoxy-phenyl)-4-(1,2,3,4-tetrahydroisoquinolin-6-yl)thieno[3,2-c]pyridin-6-yl]-6,7-dihydro-4H-thiazolo[5,4-c]pyridin-5-yl]prop-2-en-1-one]			A (percent of modification of PIK3CA protein ≥75%)		6.00 to 7.00
C=CC(=O)N1CCc2nc(-c3nc(-c4ccc5c(c4)CCNC5)c4c(F)csc4c3-c3ccc(F)cc3OC)sc2C1 [Compound 274, 1-[2-[3-fluoro-7-(4-fluoro-2-methoxy-phenyl)-4-(1,2,3,4-tetrahydroisoquinolin-6-yl)thieno[3,2-c]pyridin-6-yl]-6,7-dihydro-4H-thiazolo[5,4-c]pyridin-5-yl]prop-2-en-1-one]			A (percent of modification of PIK3CA protein ≥75%)		6.00 to 7.00
C=CC(=O)N1C[C@H](C)n2nc(-c3nc(-c4cnn(C)c4)c4ccsc4c3-c3c(F)cc(F)cc3OCCOC)cc2[C@@H]1C [Compound 607]	> 7.00		A (percent of modification of PIK3CA protein ≥75%)		
C=CC(=O)N1CCn2nc(-c3nc(-c4cnc5cnn(C)c5c4)c4ccsc4c3-c3c(F)cc(F)cc3OCCO)cc2C1C (centres unmarked) [Compound 901]	> 7.00	A (percent of modification of PIK3CA protein ≥75%)			
C=CC(=O)N1CCn2nc(-c3nc(-c4cncc(CN(C)C)c4)c4ccsc4c3-c3c(F)cc(F)cc3OCCOC)cc2C1C (centres unmarked) [Compound 1141]		A (percent of modification of PIK3CA protein ≥75%)		> 7.00	
C=CC(=O)N1CCc2nc(-c3nc(-c4ccc5c(c4)CCC(N(C)C)C5)c4ccsc4c3-c3ccc(F)cc3OCCOC)sc2C1 (centres unmarked) [Compound 148]	> 7.00		A (percent of modification of PIK3CA protein ≥75%)		
C=CC(=O)N1CCn2nc(-c3nc(-c4cnn(C5CN(C)C5)c(=O)c4)c4ccsc4c3-c3c(F)cc(F)cc3OCCOC)cc2C1C (centres unmarked) [Compound 1035]		A (percent of modification of PIK3CA protein ≥75%)		> 7.00	
C=CC(=O)N1CC[C@H](n2cc(-c3nc(-c4ccc5c(c4)CCNC5)c4ccsc4c3-c3ccc(F)cc3OCC3CCNC(=O)C3)ccc2=O)C1 (some centres unmarked) [Compound 214]	6.00 to 7.00		A (percent of modification of PIK3CA protein ≥75%)		
C=CC(=O)N1CCn2nc(-c3nc(-c4cnc5c(c4)CN(C)CC5)c4ccsc4c3-c3c(F)cc(F)cc3OCCOC)cc2C1C (centres unmarked) [Compound 929]	> 7.00	A (percent of modification of PIK3CA protein ≥75%)			

SMILES	pIC50 (pAKT in BT474 cells; Compounds 10-999)	% of modification [1, 2]	% of modification [1, 3]	pIC50 (pAKT in BT474 cells; Compounds 1000-1279)	pIC50 (pAKT in BT474 cells; [4])
C=CC(=O)N1CCc2ncc(-c3nc(-c4cnc5c(c4)CN(C)CC5)c4ccsc4c3-c3ccc(F)cc3OC(C)C)cc2C1 [Compound 319]	> 7.00		A (percent of modification of PIK3CA protein ≥75%)		
C=CC(=O)N1CCc2nc(-c3nc(-c4ccc(=O)[nH]c4)c4ccsc4c3-c3ccc(F)cc3OCCOC)sc2C1 [Compound 131]	> 7.00		A (percent of modification of PIK3CA protein ≥75%)		
C=CC(=O)N1CCn2nc(-c3nc(-c4ccc5c(cnn5C)c4)c4ccsc4c3-c3c(F)cc(F)cc3OCCOC)cc2[C@H]1C [Compound 758, 1-((R)-2-((S)-7-(2,4-difluoro-6-(2-methoxyethoxy)phenyl)-4-(1-methyl-1H-indazol-5-yl)thieno[3,2-c]pyridin-6-yl)-4-methyl-6,7-dihydropyrazolo[1,5-a]pyrazin-5(4H)-yl)prop-2-en-1-one]	> 7.00		A (percent of modification of PIK3CA protein ≥75%)		
C=CC(=O)N1CC(n2cc(-c3nc(-c4ccn(C)c(=O)c4)c4ccsc4c3-c3ccc(F)cc3OC)cn2)C1 [Compound 179]	> 7.00		A (percent of modification of PIK3CA protein ≥75%)		
C=CC(=O)N1CCn2nc(-c3nc(-c4ccc5nn(C)cc5c4)c4ccsc4c3-c3c(F)cc(F)cc3OCCO)cc2[C@H]1C [Compound 650]	> 7.00		C (25%≤percent of modification <50%)		
C=CC(=O)N1CCc2nc(-c3nc(-c4cnc5c(c4)CNCC5)c4ccsc4c3-c3ccc(F)cc3OCCOC)sc2C1 [Compound 227]	> 7.00		A (percent of modification of PIK3CA protein ≥75%)		
C=CC(=O)N1CCC(n2cc(-c3nc(-c4cn(C)cn4)c4ccsc4c3-c3ccc(F)cc3OCCOC)cn2)CC1 [Compound 73]	6.00 to 7.00		A (percent of modification of PIK3CA protein ≥75%)		
C=CC(=O)N1CCn2nc(-c3nc(-c4ccc5c(c4)C(=O)NCC5)c4ccsc4c3-c3c(F)cc(F)cc3OCCOC)cc2[C@H]1C [Compound 956]	> 7.00	A (percent of modification of PIK3CA protein ≥75%)			
C=CC(=O)N1CCc2ncc(-c3nc(-c4ccc5c(c4)CN(C)CC5(F)F)c4ccsc4c3-c3c(F)cc(F)cc3OCCOC)cc2C1 [Compound 1274]		A (percent of modification of PIK3CA protein ≥75%)		> 7.00	
C=CC(=O)N1CCn2nc(-c3nc(-c4ccnc(N)c4)c4ccsc4c3-c3ccc(F)cc3OC(F)F)cc2C1 [Compound 226]	> 7.00		A (percent of modification of PIK3CA protein ≥75%)		
C=CC(=O)N1CCn2nc(-c3nc(N4CCC5(CC4)COC5)c4ccsc4c3-c3ccc(F)cc3OC(C)C)cc2C1 [Compound 207]	> 7.00		A (percent of modification of PIK3CA protein ≥75%)		
C=CC(=O)N1CCc2nc(-c3nc(-c4cccc(C(C)(C)O)c4)c4ccsc4c3-c3c(F)cc(F)cc3OCCOC)sc2C1 [Compound 429]	6.00 to 7.00		A (percent of modification of PIK3CA protein ≥75%)		
C=CC(=O)N1CCc2nc(-c3nc(-c4cnn(C)c4)c4ccsc4c3-c3ccc(F)cc3OCC3CCNC(=O)C3)sc2C1 (centres unmarked) [Compound 144, 4-[[5-fluoro-2-[4-(1-methylpyrazol-4-yl)-6-(5-prop-2-enoyl-6,7-dihydro-4H-thiazolo[5,4-c]pyridin-2-yl)thieno[3,2-c]pyridin-7-yl]phenoxy]methyl]piperidin-2-one]			A (percent of modification of PIK3CA protein ≥75%)		> 7.00
C=CC(=O)N1Cc2cc(-c3nc(-c4cnn(C)c4)c4ccsc4c3-c3c(F)cc(F)cc3OCCO)nn2[C@@H](C)C1 [Compound 566]	6.00 to 7.00		D (percent of modification <25%)		
C=CC(=O)N1Cc2cc(-c3nc(-c4ccc5c(c4)CCN(C)C5)c4ccsc4c3-c3c(F)cc(F)cc3OCCO)nn2C[C@H]1C [Compound 512]	> 7.00		A (percent of modification of PIK3CA protein ≥75%)		
